Measured values published in PMC7115587 (European Journal of Medicinal Chemistry, 2014).

Legend:
[1] = system: HCT116 (colon cancer cell line) cells; test: In vitro cytotoxicity
[2] = system: CQ resistant W2 strain of P. falciparum; test: In vitro antimalarial activity; format: cell-based, Plasmodium falciparum

SMILES | cytotoxicity (in words) [1] | antimalarial activity (in words) [2]
O=C1C(=O)N(CC(CO)NCCCNc2ccnc3cc(Cl)ccc23)c2ccc(Cl)cc21 (stereo not drawn) [Compound 11f, 5-Chloro-1-{2-[3-(7-Chloro-quinolin-4-ylamino)-propylamino]-3-hydroxy-propyl}-1H-indole-2,3-dione] | devoid of any cytotoxicity | –
O=C1C(=O)N(CC(CO)NCCNc2ccnc3cc(Cl)ccc23)c2ccccc21 (stereo not drawn) [Compound 11a, 1-{2-[2-(7-Chloro-quinolin-4-ylamino)-ethylamino]-3-hydroxy-propyl}-1H-indole-2,3-dione] | – | better activity than chloroquine
O=C1C(=O)N(CC(CO)NCCNc2ccnc3cc(Cl)ccc23)c2ccc(Cl)cc21 (stereo not drawn) [Compound 11b, 5-Chloro-1-{2-[2-(7-Chloro-quinolin-4-ylamino)-ethylamino]-3-hydroxy-propyl}-1H-indole-2,3-dione] | devoid of any cytotoxicity | –
